In the oligonucleotide strings, read from the 5' end, every base follows the letter of its sugar. An asterisk marks phosphorothioate; unmarked linkages are phosphodiester. Other units and linkages are bracketed, terminal groups are in braces. A string of capitals states the bases alone. d = 2'-deoxy (DNA); r = 2'-OH (RNA)
Columns and labels:
[1] = tested on: SH-SY5Y cells; assay: Cell death in FDX1 regulated SH-SY5Y cells with Aβ-Cu treatment; format: cell-based; settings: FDX1 knocked down cells; 25 µM Tempol or 100 μM Trolox
Description: FIGS. 21A-21C depict cell death in FDX1 regulated SH-SY5Y cells with Aβ-Cu treatment. […] For all graphs, ****p<0.0001, ***p<0.001, **p<0.01, and ns is p>0.05.
Both oxidative stresses and proteotoxic stresses mediated cuproptosis were also observed in neurons during copper overload by elesclomol (ES), which is a copper ionophore, contributing to neuronal death. The high redox properties of copper can promote the Aβ-induced oxidative stress and subsequent neuronal death. […] The hypothesis is that the property of Aβ can be acted as a copper ionophore is part of what contributes to the pathological effects of cuproptosis in AD. To explore more about whether cuproptosis is related to AD neurodegeneration and understand the role of Aβ-Cu in neuronal death, the viability of SH-SY5Y cells with FDX1 knocked down by RNAi were monitored by stimulating with different CuCl2 concentration and 10 μM Aβ for overnight. […] Cu^2+ ions bound to Aβ are consistently more toxic to neuronal cells than Aβ in the absence of Cu^2+ ions.

[2] = Gel based activity assay of Cu^2+ DNAzyme; format: biochemical
Experimental: (§1) FIG. 10 depicts gel and fluorescence-based activity assay for Cu^+ and Cu^2+ DNAzyme. PAGE Gel images of Cu^+ DNAzyme cleaving the substrate in the presence of various concentrations of Cut. Lane 1: Cu^+ aS, Lane 2: Cu^+ aE, Lane 3-10: the concentration of Cu^2+ is 0 nM, 125 nM, 250 nM, 500 nM, 1 μM, 2 μM, 4 μM, and 8 μM, respectively, the concentration of ascorbate is 50 μM. Quantification of Cu^+. Inset is the linear response at low Cu^+ concentrations. denaturing gel images of Cu^2+ DNAzyme cleaving the substrate in the presence of various concentrations of Cu^2+. Lane1-8: the concentration of Cu^2+ is 0 μM, 1 μM, 2 μM, 4 μM, 6 μM, 8 μM, 10 μM, and 20 μM, respectively. Quantification of Cu^2+. Inset: the linear response at low Cu^2+ concentrations.
(§2) Gel based activity assays: For Cu^+ DNAzyme, 1 μM of Cu1 aS and 2 μM of Cu1 aE were added in 50 mM Bis-Tris, 150 mM NaCl, pH 7.5. The solution was heated at 90° C. for 5 min and slowly cooled down to room temperature for more than 1 h to anneal the DNAzyme. After annealing, each sample contains a final of 5 μL of 0.25 μM DNAzyme complex. 2 ul of 50 μM of freshly prepared ascorbate was mixed with DNAzyme complex. After adding 2 μl different concentration of Cu^2+, incubated at room temperature for 60 min. […] The gels were analyzed with Bio-Rad Gel Doc 2000 imaging system.

[3] = Fluorescence based activity assay of Cu^2+ sensor; format: biochemical; settings: fluorescence at 520 nm, 30 min
Experimental: (§3) Fluorescence based activity assay: For Cu^+ sensor, […] of Cu1 aS Cy5 and 9 µM of Cu1 aE Q were annealed in a buffer of 50 mM Bis-Tris, 150 mM NaCl, pH 7.5. For each test, 2 μL of the annealed sensor was diluted into 194 μL of buffer (50 mM Bis-Tris, 150 mM NaCl, pH 7.5), and 2 μL of 5 mM ascorbate was added. Then 2 μL of 2 μl different concentration of Cu^2+ were added. The signaling kinetics were monitored (Ex=635 nm; Em=666 nm) using Hitachi fluorimeter. For Cu^2+ sensor, the DNAzyme complex was formed by annealing the 5 μM of Cu2 PSrS FAM and 7.5 μM Cu2 aE Q in 50 mM MES, 25 mM NaCl, pH 6.0. For each well, 2 μL of the annealed sensor was diluted into 196 μL of buffer (50 mM MES, 25 mM NaCl, pH 6.0). 2 μL different concentration of Cu^2+ were added to initiate cleavage reaction, and the signaling kinetics were monitored (Ex=488 nm; Em=520 nm) using Hitachi fluorimeter.

[4] = tested on: corpus callosum brain region; assay: Iron changes in the cuprizone model of Multiple Sclerosis; format: in vivo, mice; settings: over the course of cuprizone treatment; back to normal upon removal
Experimental: The study also co-stained the sensors with other antibodies to identify cell identities in neuron degenerative diseases, such as Alzheimer's disease. The antibody staining was performed before staining iron sensors. After traditional immunochemistry staining (need to avoid antigen exposures that require H2O2 or other oxidative reagents), brain slices were changed into the BisTris buffer for iron sensors and incubated with iron sensors for 30 minutes. Then the brain slices were mounted onto slices and imaged immediately to minimize the background cleavage or degradation of the sensors. The iron redox changes in specific cell types were evaluated by taking images with a confocal microscope and analyzing the iron signal that colocalized with specific antibodies. […] The study also observed a decrease in iron levels in microglial cells of wildtype mice brains in the hippocampal region, but an increase in iron levels in 3×Tg mice brains. […] More detailed investigations are still going on to test how they are correlated with this disease process.
With a similar technique, the iron changes were studied with the cuprizone model of Multiple Sclerosis as well. […] The Fe^3+/Fe^2+ elevation was back to normal upon the removal of the chemical, and remyelination of the mice brains.

[5] = tested on: HepG2 or Hela cells; assay: Simultaneous imaging of labile Fe^2+ and Fe^3+ in living cells treated with Tf or DFO; format: cell-based
Experimental: For delivery of DNAzyme sensors using PEI (66, 67), the corresponding Fe(II)-H5-ErS, Fe(II)-H5-iErS, Fe(III)-B12-ErS, and Fe(III)-B12-iErS (final concentration of 10 μM) were mixed in the Fe^2+ buffer and Fe^3+ buffer separately. The mixtures were annealed at 95° C. for 5 min and stored at room temperature to allow full hybridization. PEI (25 kDa) was dissolved in water at 1 mg/ml. […] The normal cell medium was replaced with iron-deficient medium before the PEI-ErS or PEI-iErS was added to the cells grown in the plates.
After incubating HepG2 cells with PEI-ErS or PEI-iErS complex for 4 hours, cells were washed with phosphate-buffered saline (PBS) twice to remove excess amounts of complexes in medium. Then, the cells were stained by Hoechst 33258 for 15 min. Images were obtained using a Zeiss LSM 880 confocal microscope at 63× oil objective lens with numerical aperture 1.40 and immersion medium Immersol 518 F (Zeiss) at the UIUC IGB Core Facilities. Florescence emission of Hoechst 33258 was measured over 450 to 500 nm with excitation at 401 nm. Fe(II)-H5 was excited by 488 nm and measured over 500 to 550 nm, and Fe(III)-B12 was excited at 633 nm and measured over 640 to 700 nm. A laser power of 67% and pinhole size of 1 […] (AU) were used for the cellular images. Acquired images were analyzed by ImageJ using JACoP (88, 89). No background subtraction, Z-stacks, Gaussian blur filter, or change thresholds were performed for visualizing the figures. For cell fluorescence quantification, the study quantified the average fluorescence signals intensity in five cells (for TurboFect transfected cells) or five LysoTracker-labeled regions in different cells (for PEI transfected cells), per picture and three pictures per group with Image J (88), for the statistical comparison between groups.
Simultaneous imaging of labile Fe^2+ and Fe^3+ in living cells: HepG2 or Hela cells were cultured in glass-bottom dishes until about 70% confluence. The cells were pretreated with iron-deficient MEM containing either 100 μM DFO, 100 μM ferric ammonium citrate, […] holo-Tf, or 50 μM Tf for 4 hours, and then, the medium was replaced with an iron-deficient MEM containing PEI-ErS or PEI-iErS complexes or Opti-MEM containing 1 μl of TurboFect transfection reagent as described above for 4 hours. Before imaging, the cells were stained by LysoTracker Red and Hoechst 33258 for 15 min. After washing with PBS, the cells were incubated in iron-deficient MEM or regular DMEM, respectively, during the imaging.
Data processing and statistical analysis: To have a direct comparison of the iron amount between groups, the background signals were normalized by subtracting the fluorescence signals in iErS groups from the ErS groups (F-F0). No Z-stacks or change thresholds were used for statistical analysis. Graphs were plotted with GraphPad (GraphPad Software Inc.) or Origin (OriginLabs Corporation) and correspond to a single experiment. Bars represent means±SEM. Two-tailed distribution and two-sample equal variance t test were used for analyzing significance. Dixon's Q tests were performed to identify and exclude outliners. *P<0.05, **P<0.01, and ***P <0.001. […] The presented data described the quantification from single representative replicates from those biological replicates.

[6] = tested on: cells; assay: Fe signal changes detected with DNAzyme sensors and flow cytometry; format: cell-based; settings: treated with Transferrin
Description: Preliminary results: The study detected the Fe signal changes with DNAzyme sensors and flow cytometry.

[7] = tested on: HepG2 cells; assay: MTT assay of cytotoxicity of RSL3; format: cell-based; settings: 1 μM RSL3, over 8 hours
Experimental: To measure the cytotoxicity of RSL3 to HepG2 cells, a standard MTT assay was used. HepG2 cells were seeded at a density of 15,000 cells per well in 96-well plates. When the cells grew to 80% confluence, the medium was replaced by the normal MEM containing 1 μM RSL3 at different time points (0, 2, 4, 6, 8, and 10 hours). Afterward, the cell medium was replaced by the iron-deficient MEM containing PEI-ErS or PEI-iErS, incubated in a 37° C., 5% CO2 incubator for another 4 hours. The absorbance at 570 nm was measured with a SpectraMax M2 microplate reader to obtain the MTT assay readings. The untreated cells were set as a blank control for normalization.

[8] = tested on: HepG2 cells; assay: Ferroptosis-induced fluctuations of labile Fe^2+ and Fe^3+ pools (RSL3); format: cell-based
Experimental: Ferroptosis-induced fluctuations of labile Fe^2+ and Fe^3+ pools: HepG2 cells were treated with 1 μM RSL3 in normal MEM at different time points (0, 2, 4, 6, 8, and 10 hours). Then, the cell medium was replaced by iron-deficient MEM containing PEI-ErS or PEI-iErS and incubated in a 37° C., 5% CO2 incubator for another 4 hours. Before imaging, the cells were stained by LysoTracker Red and Hoechst 33258 for 15 min. After washing with PBS, the cells were incubated in iron-deficient MEM during the imaging.

[9] = tested on: cultured cell lines; assay: Iron redox changes in cultured cell lines with ferroptosis inducers and NCOA4 regulators; format: cell-based
[10] = Fluorescence based activity assay of Cu^+ sensor; format: biochemical; settings: fluorescence at 666 nm, 30 min
Experimental: as §3

[11] = Gel based activity assay of Cu^+ DNAzyme; format: biochemical
Experimental: as §1, §2

[12] = 5 μM Tf group, iron-deficient medium

## Cc1c(C)c2c(c(C)c1O)CCC(C)(C(=O)O)O2 (stereo not shown) [Trolox]
[1]
  rescue of Aβ-Cu induced cell death by ROS scavenger: fail to fully rescue

## Cu^2+ DNAzyme: substrate strand Cu2 PSrS annealed with enzyme strand Cu2 aE (chain 1 dAdGdTdCdAdCdTdAdTrA*dGdGdAdAdGdAdTdGdGdCdGdAdAdA; chain 2 TTTCGCCATCTTCACCAGGAAATAGTGACT; chain 2: unmodified DNA)
[2]
  activity with high ascorbic: no activity
  selectivity between copper oxidation states: excellent selectivity
[3]
  detection limit: 35.16 nM

## O=C(NN=C1CCCCC1)C(=O)NN=C1CCCCC1 [cuprizone]
[4]
  iron redox (Fe^3+/Fe^2+) in corpus callosum: elevated iron redox

## CC1(C)CC(O)CC(C)(C)N1[O] [Tempol]
[1]
  rescue of Aβ-Cu induced cell death by ROS scavenger: fail to fully rescue

## transferrin [Tf]
[5]; [12]
  increase of Fe^2+ sensor signal: 1.9 fold
  increase of Fe^3+ sensor signal: 1.6 fold
[5]; normal cell media
  increase for both Fe^3+ and Fe^2+: around 4 fold
[5]; treated cells
  change of the Fe^3+/Fe^2+ ratio: No significant change
[6]
  cells with elevated fluorescence intensity (moved from Q4 to Q2): More than 20%

## COC(=O)c1ccc([C@@H]2c3[nH]c4ccccc4c3C[C@@H](C(=O)OC)N2C(=O)CCl)cc1 [RSL3, RAS-selective lethal 3]
[7]
  MTT assay result: cell death
[8]; 1 μM RSL3, from 0 to 2 hours, LysoTracker-labeled region
  increase of Fe^2+: 2.3 fold
[8]; 1 μM RSL3, from 0 to 4 hours, LysoTracker-labeled region
  increase of Fe^3+: 2.8 fold
[8]; 1 μM RSL3, from 2 to 4 hours, LysoTracker-labeled region
  increase of Fe^2+: 4.3 fold
[8]; RSL3-induced ferroptosis, endo-lysosomes
  Fe^3+/Fe^2+ ratio (Fe redox) during ferroptosis: continuous decrease
[8]; after 4 hours
  Fe^2+ and Fe^3+ levels in later stage of ferroptosis: both iron levels decreased
[9]
  Fe^2+ and Fe^3+ during induced ferroptosis: increased
  Fe^3+/Fe^2+ ratio during induced ferroptosis: decreased

B1: Cu^+ DNAzyme: substrate strand Cu1 aS annealed with enzyme strand Cu1 aE (nucleic acid)
chain 1: AGCTTCTTTCTAATACGGCTTACCAC
chain 2: GTGGTAAGCCTGGGCCTCTTTCTTTTTAAGAAAGAAC
modifications: DNA, backbone not given here; Cy5 on substrate, Iowa Black RQ on enzyme, further chemistry not fully specified
notes: substrate strand Cu1 aS annealed with enzyme strand Cu1 aE
[10]
  detection limit: 53.92 nM
[11]
  selectivity between copper oxidation states: excellent selectivity
[11]; no cleavage products at low concentrations of ascorbic
  cleavage dependence on ascorbic: ascorbic concentration dependent cleavage

— US20250314668A1, “DNAZYMES FOR SENSING AND IMAGING TARGET MOLECULES” (BOARD OF REGENTS, THE UNIVERSITY OF TEXAS SYSTEM, priority 2024, published 2025)
